Data set [1] deals with E.coli bacterial strain, AB2463 mutant strain (RecA). The experiment in a line: Mutagenicity test: mortality of RecA-deficient E. coli strain. Format: cell-based. The following applies: RecA strain AB2463, treated for 2 hours at 37 °C. The method, then:
A summary of results in mutagenicity and acute toxicity tests is given hereinbelow. a) Mutagenicity tests: E.coli bacterial strain, AB2463 mutant strain (RecA) was used. […] RecA strain, AB2463 mutant strain, which is defective in the recombination and induction of SOS system, was treated for 2 hours at 37^ºC with compounds of the present invention. […]

For a further data set, the system named is male BDF₁ mice. The experiment in a line: Acute toxicity test, LD50 i.p. (Litchfield-Wilcoxon method). Format: in vivo. The following applies: 6-7 week-old male BDF₁ mice, 18-22 g.

This passage reports LD₁₀, LD₅₀ and LD₉₀ results from patent EP0517225A1, “Aminopyrrolidine platinum compounds, a process for preparing them and pharmaceutical compositions containing them” (priority 1991, dated 1992).

As to `N.N.O=C([O-])C1(C(=O)[O-])CCC1.[Pt+2]` [Carboplatin, reference compound], in data set [1], the LD₁₀ turned out to be 71.53 µM, the LD₅₀ is listed as 606.0 µM and the LD₉₀ was 1599 µM. Also, the LD₅₀ in the data set on male BDF₁ mice amounted to 117.5 mg/kg.
As for `N.N.[Cl][Pt][Cl]` [Cisplatin, reference compound], in data set [1], the LD₁₀ turned out to be 5.72 µM, the LD₅₀ is listed as 17.0 µM and the LD₉₀ amounted to 56.0 µM.
With `CC1C(N)CCN1C.[Cl][Pt][Cl]` (stereo not drawn) [Example 1, Cis-dichloro(3-amino-1,2-dimethylpyrrolidine)platinum^(II)], in data set [1], the LD₁₀ is listed as greater than 1.2 µM, the LD₅₀ is given as 5.98 µM and the LD₉₀ is reported as 13.15 µM. The compound also yielded an LD₅₀ in the data set with male BDF₁ mice of 95.02 mg/kg.
As for `CCN1CCC(N)C1C.[Cl][Pt][Cl]` (stereo not drawn) [Example 2, Cis-dichloro(3-amino-1-ethyl-2-methylpyrrolidine)platinum^(II)], in data set [1], the LD₁₀ is 15.86 µM, the LD₅₀ is 57.08 µM and the LD₉₀ came to 301.27 µM. The same compound had an LD₅₀ in the data set with male BDF₁ mice of 60.95 mg/kg.
On to `CCC1C(N)CCN1C.[Cl][Pt][Cl]` (stereo not drawn) [Example 3, Cis-dichloro(3-amino-2-ethyl-1-methylpyrrolidine)platinum^(II)], for which, in data set [1], the LD₁₀ worked out at 10.74 µM, the LD₅₀ came to 17.89 µM and the LD₉₀ is given as 35.78 µM. Further, in the data set with male BDF₁ mice, the LD₅₀ came out at 82.72 mg/kg.
The like results for `CCC1C(N)CCN1CC.[Cl][Pt][Cl]` (stereo not drawn) [Example 4, Cis-dichloro(3-amino-1,2-diethylpyrrolidine)platinum^(II)] were, in that order, 18.97 µM, 35.57 µM, 72.33 µM and 113.81 mg/kg.
